25 compounds from patent US20230159510A1, “NOVEL PRMT5 INHIBITORS” (AMGEN INC., priority 2020, published 2023) can be followed below.

In general, Ki refers to the dissociation constant of the complex between target and ligand, obtained from inhibition or displacement. As a reminder, the pIC50 is the IC50 on a negative log10 scale, so that one unit is a factor of ten.

In one assay the target is PRMT5/MEP50 (Homo sapiens, UniProt O14744). The assay can be described thus: MTase-Glo methyl transferase assay, Method B (FL-Histone H2A, 1 µM MTA, 1 h pre-incubation). The note with it: read-out: PRMT5 MTase Glo Ki (nM, Meth. B). The assay is classed as biochemical. Set-up: purchased Reaction Biology Corp RD-11-292. The essentials: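 PRMT5/MEP50 (4 nM) was pre-incubated 1 h with compound, 5 µM SAM and 1 µM MTA, then started with 2.5 µM FL-Histone H2A in Tris pH 8.0 buffer. After 20 h at room temperature, SAH was detected by MTase-Glo luminescence, and IC50/KI were fitted from dose-response curves.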

Another assay concerns HCT116 MTAP null cells. The assay can be described thus: HCT116 proliferation assay, MTAP null cells (CellTiter-Glo, 6 days). The assay is classed as cell-based. The settings on record: HCT116-MTAP null, 144 h, read-out: Protif_ HCT116-MTAP null IC50. The essentials: (§1)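 Cells grown in RPMI 1640 + 10% FBS, plated overnight, then exposed for 6 days to 8- or 9-point 1:3 compound dilutions (top 1 or 10 µM) with DMSO control. Viability read by CellTiter-Glo luminescence.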
(In general: Cellular ATP, detected with luciferase, serves as a proxy for viable cell number.)

The next assay deals with HCT116 WT cells. The assay is described as follows: HCT116 proliferation assay, WT cells (CellTiter-Glo, 6 days). In kind it is cell-based. The note with it: Homo sapiens, HCT-116, 144 h, read-out: Prolif_HCT116-WT IC50. The method, boiled down: as §1

Each structure is given as a SMILES string. pIC50: −log10 of the molar value.

PRMT5/MEP50, sequence (O14744 2-637 limits assumed): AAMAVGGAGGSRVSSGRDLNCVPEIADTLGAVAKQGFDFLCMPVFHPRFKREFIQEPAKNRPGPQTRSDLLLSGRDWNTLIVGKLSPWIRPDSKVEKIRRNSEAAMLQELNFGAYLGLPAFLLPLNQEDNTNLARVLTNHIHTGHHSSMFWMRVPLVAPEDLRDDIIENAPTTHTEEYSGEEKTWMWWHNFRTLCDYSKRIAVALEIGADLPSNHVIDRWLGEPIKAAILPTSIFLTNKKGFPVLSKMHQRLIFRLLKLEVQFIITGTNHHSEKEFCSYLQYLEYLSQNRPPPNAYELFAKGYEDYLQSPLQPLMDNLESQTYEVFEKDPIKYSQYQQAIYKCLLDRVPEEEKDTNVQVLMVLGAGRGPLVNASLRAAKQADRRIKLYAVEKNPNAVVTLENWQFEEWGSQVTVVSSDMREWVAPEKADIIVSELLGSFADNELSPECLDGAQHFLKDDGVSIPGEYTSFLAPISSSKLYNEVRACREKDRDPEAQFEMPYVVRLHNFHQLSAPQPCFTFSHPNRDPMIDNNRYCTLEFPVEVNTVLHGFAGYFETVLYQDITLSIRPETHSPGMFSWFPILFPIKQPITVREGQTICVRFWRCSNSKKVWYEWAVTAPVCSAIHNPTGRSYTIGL
PRMT5/MEP50, sequence (Q9BQA1 2-342 partner limits assumed): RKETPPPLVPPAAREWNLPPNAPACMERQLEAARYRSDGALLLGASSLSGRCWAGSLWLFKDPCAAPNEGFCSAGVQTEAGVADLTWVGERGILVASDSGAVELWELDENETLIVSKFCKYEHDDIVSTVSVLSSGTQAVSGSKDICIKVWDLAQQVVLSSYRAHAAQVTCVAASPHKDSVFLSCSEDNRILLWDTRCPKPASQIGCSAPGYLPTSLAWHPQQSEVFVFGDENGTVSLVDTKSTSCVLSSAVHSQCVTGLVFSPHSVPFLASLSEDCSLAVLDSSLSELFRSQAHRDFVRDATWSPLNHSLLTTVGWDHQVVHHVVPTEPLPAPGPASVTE

For the compound `Cc1cc2cc(C(=O)N(Cc3ccc(C(F)(F)F)cn3)Cc3cocn3)ccc2nc1N` [Example 580, 2-amino-3-methyl-N-(oxazol-4-ylmethyl)-N-[[5-(trifluoromethyl)-2-pyridyl]methyl] quinoline-6-carboxamide], the Ki on PRMT5/MEP50 was found to be 2.24 nM. The pIC50 with HCT116 MTAP null cells is 6.96; with HCT116 WT cells, 5.25.

As for `Cc1cc2cc(C(=O)N(Cc3ccc(C(F)(F)F)cn3)C3COc4c3ccc(C)c4C)ccc2nc1N` (stereo not drawn) [Example 610, 2-amino-N-(6,7-dimethyl-2,3-dihydrobenzofuran-3-yl)-3-methyl-N-((5-(trifluoromethyl)pyridin-2-yl)methyl)quinoline-6-carboxamide], the Ki on PRMT5/MEP50 turned out to be 9.6 nM. For the same compound, the negative logarithm of the IC50 (pIC50) with HCT116 MTAP null cells is 6.27; in the assay on HCT116 WT cells it was < 6.00.

As for `Cc1cc2cc(C(=O)N(Cc3ccc4[nH]c(=O)[nH]c4c3)Cc3ccc(C(F)(F)F)cn3)ccc2nc1N` [Example 570, 2-amino-3-methyl-N-((2-oxo-2,3-dihydro-1H-benzo[d]imidazol-5-yl)methyl)-N-((5-(trifluoromethyl)pyridin-2-yl)methyl)quinoline-6-carboxamide], the inhibitory constant (Ki) at PRMT5/MEP50 was determined as 2.39 nM. Besides, the pIC50 in the assay on HCT116 MTAP null cells was 6.46; with HCT116 WT cells, < 5.00.

In the case of `COC(CN(Cc1ccc(C(F)(F)F)cn1)C(=O)c1ccc2nc(N)c(C)cc2c1)C(C)C` (stereo not drawn) [Example 613, 2-amino-N-(2-methoxy-3-methylbutyl)-3-methyl-N-((5-(trifluoromethyl)pyridin-2-yl)methyl)quinoline-6-carboxamide], at PRMT5/MEP50, the Ki was 4.35 nM. The pIC50 in the assay on HCT116 MTAP null cells is 6.57; with HCT116 WT cells, 5.41.

Consider `Cc1cc2cc(C(=O)N(Cc3ccc(C(F)(F)F)cn3)C3CCc4nc(N)ncc4C3)ccc2nc1N` (stereo not drawn) [Example 668, 2-amino-N-(2-amino-5,6,7,8-tetrahydroquinazolin-6-yl)-3-methyl-N-[ [5-(trifluoromethyl)-2-pyridyl]methyl] quinoline-6-carboxamide], for which the inhibition constant (Ki) on PRMT5/MEP50 worked out at 4.69 nM. Also, the values for the pIC50 in the assay with HCT116 MTAP null cells and with HCT116 WT cells were 6.57 and < 6.00, respectively.

Regarding `Cc1cc2cc(C(=O)N(Cc3ccc4ccoc4c3)Cc3ccc(C(F)(F)F)cn3)ccc2nc1N` [Example 622, 2-amino-N-(benzofuran-6-ylmethyl)-3-methyl-N-((5-(trifluoromethyl)pyridin-2-yl)methyl)quinoline-6-carboxamide], the inhibition constant (Ki) at PRMT5/MEP50 is 1.98 nM. Besides, the results for the negative logarithm of the IC50 (pIC50) in the assay on HCT116 MTAP null cells and in the assay with HCT116 WT cells were 6.89 and < 6.00, respectively.

With `Cc1cc2cc(C(=O)N(Cc3ccc(C(F)(F)F)cn3)[C@@H]3CCc4ccccc43)ccc2nc1N` [Example 601, 2-amino-N-[(1R)-indan-1-yl]-3-methyl-N-[[5-(trifluoromethyl)-2-pyridyl]methyl] quinoline-6-carboxamide], the inhibition constant Ki on PRMT5/MEP50 came out at 1.78 nM. In addition, the figures for the negative logarithm of the IC50 (pIC50) with HCT116 MTAP null cells and in the assay on HCT116 WT cells were 7.42 and 6.09, respectively.

Consider `Cc1cc2cc(C(=O)N(Cc3ccc4[nH]c(N)nc4c3)Cc3ccc(C(F)(F)F)cn3)ccc2nc1N` [Example 616, 2-amino-N-((2-amino-1H-benzo [d]imidazol-5-yl)methyl)-3-methyl-N-((5-(trifluoromethyl)pyridin-2-yl)methyl)quinoline-6-carboxamide], for which the inhibition constant Ki at PRMT5/MEP50 was 3.29 nM. Moreover, the negative-log IC50 (pIC50) is 6.49 in the assay on HCT116 MTAP null cells and < 6.00 in the assay with HCT116 WT cells.

`Cc1cc2cc(C(=O)N(Cc3ccc(C(F)(F)F)cn3)C3CCCc4nn(C)cc43)ccc2nc1N` (stereo not drawn) [Example 605, 2-amino-3-methyl-N-(2-methyl-4,5,6,7-tetrahydro-2H-indazol-4-yl)-N-((5-(trifluoromethyl)pyridin-2-yl)methyl)quinoline-6-carboxamide]: the Ki at PRMT5/MEP50 turned out to be 6.2 nM. For the same compound, the figures for the pIC50 in the assay on HCT116 MTAP null cells and with HCT116 WT cells were 6.84 and < 5.89, respectively.

Regarding `Cc1cc2cc(C(=O)N(Cc3ccc4[nH]ccc4c3)Cc3ccc(C(F)(F)F)cn3)ccc2nc1N` [Example 623, N-((1H-indol-5-yl)methyl)-2-amino-3-methyl-N-((5-(trifluoromethyl)pyridin-2-yl)methyl)quinoline-6-carboxamide], at PRMT5/MEP50, the inhibition constant (Ki) was 3.14 nM. Further, the pIC50 is 7.25 in the assay with HCT116 MTAP null cells and 6.05 with HCT116 WT cells.

Turning to `Cc1cc2cc(C(=O)N(Cc3cc(Br)ccn3)CC(C)C)ccc2nc1N` [Example 665, 2-amino-N-[(4-bromo-2-pyridyl)methyl]-N-isobutyl-3-methylquinoline-6-carboxamide], the inhibitory constant (Ki) at PRMT5/MEP50 was determined as 9.17 nM. Besides, the negative-log IC50 (pIC50) with HCT116 MTAP null cells was 6.17.

In the case of `Cc1cc2cc(C(=O)N(Cc3ccc(C(F)(F)F)cn3)C(C)C3CCCO3)ccc2nc1N` (stereo not drawn) [Example 632, 2-amino-3-methyl-N-(1-tetrahydrofuran-2-ylethyl)-N-[[5-(trifluoromethyl)-2-pyridyl]methyl] quinoline-6-carboxamide], the inhibition constant (Ki) at PRMT5/MEP50 is 5.3 nM. For the same compound, the pIC50 with HCT116 MTAP null cells was 6.47.

Regarding `CC#CCN(Cc1ccc(C(F)(F)F)cn1)C(=O)c1ccc2nc(N)c(C)cc2c1` [Example 657, 2-amino-N-but-2-ynyl-3-methyl-N-[[5-(trifluoromethyl)-2-pyridyl]methyl] quinoline-6-carboxamide], the Ki on PRMT5/MEP50 came out at 5.34 nM. Also, the pIC50 in the assay with HCT116 MTAP null cells is 6.21.

Turning to `Cc1cc2cc(C(=O)N(Cc3ccc(C(F)(F)F)cn3)Cc3ccc[nH]c3=O)ccc2nc1N` [Example 627, 2-amino-3-methyl-N-((2-oxo-1,2-dihydropyridin-3-yl)methyl)-N-((5-(trifluoromethyl)pyridin-2-yl)methyl)quinoline-6-carboxamide], the Ki at PRMT5/MEP50 is 2.8 nM. The pIC50 in the assay on HCT116 MTAP null cells was 6.44.

Regarding `Cc1cc2cc(C(=O)N(Cc3ccc(C(F)(F)F)cn3)C(C)C(C)O)ccc2nc1N` (stereo not drawn) [Example 641, 2-amino-N-(2-hydroxy-1-methylpropyl)-3-methyl-N-[[5-(trifluoromethyl)-2-pyridyl]methyl] quinoline-6-carboxamide], the Ki on PRMT5/MEP50 amounted to 13.1 nM. Besides, in the assay on HCT116 MTAP null cells, the pIC50 was 6.04.

Regarding `Cc1cc2cc(C(=O)N(Cc3ccc(O)c(F)c3)Cc3ccc(C(F)(F)F)cn3)ccc2nc1N` [Example 662, 2-amino-N-[(3-fluoro-4-hydroxyphenyl)methyl] -3-methyl-N-[ [5-(trifluoromethyl)-2-pyridyl]methyl] quinoline-6-carboxamide], at PRMT5/MEP50, the inhibition constant Ki is 3.58 nM. In addition, the negative-log IC50 (pIC50) in the assay on HCT116 MTAP null cells is 6.74.

On to `Cc1cc2cc(C(=O)N(CCC3CCC3)Cc3ccc(C(F)(F)F)cn3)ccc2nc1N` [Example 629, 2-amino-N-(2-cyclobutylethyl)-3-methyl-N-((5-(trifluoromethyl)pyridin-2-yl)methyl)quinoline-6-carboxamide], for which the Ki at PRMT5/MEP50 is 5.93 nM. Further, in the assay with HCT116 MTAP null cells, the negative-log IC50 (pIC50) was 6.11.

Consider `Cc1cc2cc(C(=O)N(Cc3ccc(C(F)(F)F)cn3)C(C)c3cccc(O)c3)ccc2nc1N` (stereo not drawn) [Example 663, 2-amino-N-[1-(3-hydroxyphenyl)ethyl] -3-methyl-N-[[5-(trifluoromethyl)-2-pyridyl]methyl] quinoline-6-carboxamide], for which, on PRMT5/MEP50, the inhibitory constant (Ki) amounted to 1.7 nM. Also, in the assay on HCT116 MTAP null cells, the negative-log IC50 (pIC50) was 7.43.

On to `Cc1cc2cc(C(=O)N(Cc3cc(Cl)ccn3)CC(C)C)ccc2nc1N` [Example 639, 2-amino-N-[(4-chloro-2-pyridyl)methyl]-N-isobutyl-3-methylquinoline-6-carboxamide], for which the inhibition constant (Ki) at PRMT5/MEP50 was 12.2 nM. Further, in the assay with HCT116 MTAP null cells, the negative-log IC50 (pIC50) is 6.24.

Take `Cc1cc2cc(C(=O)N(Cc3ccc(C(F)(F)F)cn3)C3CCC4CCCC4C3)ccc2nc1N` (stereo not drawn) [Example 669, N-(2,3,3a,4,5,6,7,7a-octahydro-1H-inden-5-yl)-2-amino-3-methyl-N-[[5-(trifluoromethyl)-2-pyridyl]methyl] quinoline-6-carboxamide]: the inhibitory constant (Ki) on PRMT5/MEP50 was determined as 8.5 nM. Further, the negative-log IC50 (pIC50) in the assay with HCT116 MTAP null cells is 6.09.

For the compound `Cc1cc2cc(C(=O)N(Cc3ccc(C(F)(F)F)cn3)C(C)c3ccc4c(c3)NC(=O)CO4)ccc2nc1N` (stereo not drawn) [Example 625, 2-amino-3-methyl-N-(1-(3-oxo-3,4-dihydro-2H-benzo[b][1,4]oxazin-6-yl)ethyl)-N-((5-(trifluoromethyl)pyridin-2-yl)methyl)quinoline-6-carboxamide], on PRMT5/MEP50, the inhibition constant (Ki) worked out at 1.99 nM. In addition, the pIC50 in the assay with HCT116 MTAP null cells is 6.74.

For `Cc1cc2cc(C(=O)N(Cc3ccc(C(F)(F)F)cn3)CC3CCC(O)C3)ccc2nc1N` (stereo not drawn) [Example 677, 2-amino-N-[(3-hydroxycyclopentyl)methyl]-3-methyl-N-[[5-(trifluoromethyl)-2-pyridyl]methyl] quinoline-6-carboxamide], the inhibitory constant (Ki) at PRMT5/MEP50 was 9.37 nM. The negative logarithm of the IC50 (pIC50) in the assay with HCT116 MTAP null cells was 6.02.

On to `Cc1cc2cc(C(=O)N(Cc3ccc(-c4cc[nH]n4)cc3)Cc3ccc(C(F)(F)F)cn3)ccc2nc1N` [Example 647, 2-amino-3-methyl-N-[[4-(IH-pyrazol-3-yl)phenyl]methyl]-N-[[5-(trifluoromethyl)-2-pyridyl]methyl] quinoline-6-carboxamide], for which, on PRMT5/MEP50, the Ki came out at 4.11 nM. In the assay on HCT116 MTAP null cells, the negative logarithm of the IC50 (pIC50) was 6.49.

With `Cc1cc2cc(C(=O)N(Cc3ccc(N4CCCC4=O)cc3)Cc3ccc(C(F)(F)F)cn3)ccc2nc1N` [Example 645, 2-amino-3-methyl-N-[[4-(2-oxopyrrolidin-1-yl)phenyl]methyl] -N-[[5-(trifluoromethyl)-2-pyridyl]methyl] quinoline-6-carboxamide], the inhibition constant (Ki) at PRMT5/MEP50 worked out at 5.93 nM. For the same compound, the pIC50 with HCT116 MTAP null cells was < 6.00.

On to `Cc1cc2cc(C(=O)N(Cc3ccc(N)cn3)Cc3c[nH]c4ccccc34)ccc2nc1N` [Example 691, 2-amino-N-[(5-amino-2-pyridyl)methyl]-N-(1H-indol-3-ylmethyl)-3-methyl-quinoline-6-carboxamide], for which the Ki at PRMT5/MEP50 amounted to 3.51 nM. Moreover, in the assay on HCT116 MTAP null cells, the pIC50 was 6.28.
